The values below come from patent publication US8133888B2, “Hydrazide containing taxane conjugates” (Sun Pharma Advanced Research Company Ltd., priority 2008, dated 2012).

Series [1] can be described thus: Solubility of the taxane conjugates in water with added acid (visual clarity). It is filed as physicochemical. The following applies: 2 mg dispersed in 0.5 ml water, sonicated, 20 μl of 2.5M HCl added, sonicated about 2 min. As for the experimental part:
About 2 mg of the taxane conjugate of formula I was dispersed in 0.5 ml water (sterile) and sonicated for about 2 min. Small aliquots of a pharmaceutically accepted acid was added, sonicated for 2-3 min after each addition and observed for visual clarity.
For example, 2 mg of compound I.03 was dispersed in 0.5 ml water and sonicated for about 2 min.

For series [2] the following is noted: cited from earlier work.
A short description of series [3]: Conversion of compound of formula I to the active taxane compound in human plasma (LC-MS/MS). The settings on record: 37° C.; for Peak Area of docetaxel formed: docetaxel released from compound I.04 in human plasma; for Peak Area of test compound / % Unconverted Compound I.04: human plasma. The series is classed as in vitro ADME. As for the experimental part:
The conversion of the test compound I.04 of the present invention to the active/parent taxane compound was determined in the human plasma sample. The test compound of 2000 ng per nil concentration was added to human plasma at ambient temperature and was kept in an incubator maintained at 37° C. Aliquots of this plasma sample were taken at definite time intervals and subjected to LC-MS/MS analysis. The samples were analyzed for amount of unconverted test compound and the amount of docetaxel formed in the test solution using LC-MS/MS operating in selected reaction monitoring (SRM) mode, as per follows: • Column: Hypurity Aquastar C-18, 50×2.1 mm, 3 micron • Mobile Phase: 10 mmol ammonium acetate-acetonitrile, 40:60 • Flow Rate: 250 μl/min • Oven Temperature: 45° C. • Retention time of compound I.04: 13.9 min • Retention time of docetaxel: 0.79 min
The parent ions>product ions monitored were the following: […]

For the compound `CC(=O)O[C@@]12CO[C@@H]1C[C@H](OC(=O)CCC(=O)NN1CCCCC1)[C@@]1(C)C(=O)[C@H](O)C3=C(C)[C@@H](OC(=O)[C@H](OC(=O)CCC(=O)NN4CCCCC4)[C@@H](NC(=O)OC(C)(C)C)c4ccccc4)C[C@@](O)([C@@H](OC(=O)c4ccccc4)[C@H]21)C3(C)C` [Compound I.03, 10-Deacetyl-N-debenzoyl-N-(tert-butyloxycarbonyl)-2′,7-bis[(N-piperidin-1-yl)succinamidoyl]taxol], the “Solubility, visual clarity” value in series [1] is “clear solution”.
`CC(=O)O[C@@]12CO[C@@H]1C[C@H](O)[C@@]1(C)C(=O)[C@H](O)C3=C(C)[C@@H](OC(=O)[C@H](O)[C@@H](NC(=O)OC(C)(C)C)c4ccccc4)C[C@@](O)([C@@H](OC(=O)c4ccccc4)[C@H]21)C3(C)C` [Docetaxel, docetaxel, reference compound]: the Solubility in water in series [2] is below 50 µg/mL. Besides, in series [1], the “Solubility, visual clarity” value was “completely insoluble”. Besides, the “Peak Area of docetaxel formed” value was 10447.0 counts in series [3] (time 0 hrs); 70713.8 counts in series [3] (time 0.5 hrs); 125083.0 counts in series [3] (time 1 hrs); 243846.6 counts in series [3] (time 2 hrs); 331134.0 counts in series [3] (time 3 hrs); 464924.3 counts in series [3] (time 4 hrs). Also, the “Peak Area of docetaxel formed” value in series [3] (time 6 hrs) is 546298.2 counts.
Regarding `CC(=O)O[C@H]1C(=O)[C@@]2(C)[C@H]([C@H](OC(=O)c3ccccc3)[C@]3(O)C[C@H](OC(=O)[C@H](O)[C@@H](NC(=O)c4ccccc4)c4ccccc4)C(C)=C1C3(C)C)[C@]1(OC(C)=O)CO[C@@H]1C[C@@H]2O` [paclitaxel], the “Solubility in water (in words)” value in series [2] is “poorly soluble in water”. Further, in series [1], the “Solubility, visual clarity” value is given as “completely insoluble”.
For `CC(=O)O[C@@]12CO[C@@H]1C[C@H](O)[C@@]1(C)C(=O)[C@H](O)C3=C(C)[C@@H](OC(=O)[C@H](OC(=O)CCC(=O)NN4CCCCC4)[C@@H](NC(=O)OC(C)(C)C)c4ccccc4)C[C@@](O)([C@@H](OC(=O)c4ccccc4)[C@H]21)C3(C)C` [Compound I.04, 10-Deacetyl-N-debenzoyl-N-(tert-butyloxycarbonyl)-2′-[(N-piperidin-1-yl)-succinamidoyl]taxol], the “Peak Area of test compound” value came to 24696932.5 counts in series [3] (time 0 hrs); 19303514.4 counts in series [3] (time 0.5 hrs); 16791382.3 counts in series [3] (time 1 hrs); 11789443.5 counts in series [3] (time 2 hrs); 6259891.0 counts in series [3] (time 3 hrs); 3007853.1 counts in series [3] (time 4 hrs). In addition, in series [3] (time 6 hrs), the “Peak Area of test compound” value came out at 904115.8 counts. Further, the “% Unconverted Compound I.04” value in series [3] (time 0.0 hrs) was found to be 100%; in series [3] (time 0.5 hrs), 59.1%; in series [3] (time 1.0 hrs) it was 40.3%; in series [3] (time 2.0 hrs) it was 4.7%; in series [3] (time 4.0 hrs), 0.1%.
